The results in this text go back to patent publication US11414395B2, “Heterocyclic compounds as modulators of mGluR7” (PRAGMA Therapeutics, priority 2017, dated 2022).

The experiment deals with human mGluR7 (Homo sapiens (Human), UniProt Q14831). Put plainly: Inositol monophosphate production assay (IP1 assay), inhibition of L-AP4 response. The note with it: mean IC50 from at least two independent experiments; HEK293 cells transiently transfected with mGluR7, Gqtop and EAAC1; IP1 production vs EC80 L-AP4. Format: cell-based. An outline of the steps: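 HEK293 cells transiently co-expressing mGluR7, chimeric Gq/Gi (Gqtop) and EAAC1, switched to Glutamax medium 3 h before stimulation. IP1 measured by competitive HTRF; inhibition of an EC80-equivalent L-AP4 response, triplicate points, four-parameter fit to log IC50, mean of ≥2 experiments.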
human mGluR7, sequence (Q14831 35-915): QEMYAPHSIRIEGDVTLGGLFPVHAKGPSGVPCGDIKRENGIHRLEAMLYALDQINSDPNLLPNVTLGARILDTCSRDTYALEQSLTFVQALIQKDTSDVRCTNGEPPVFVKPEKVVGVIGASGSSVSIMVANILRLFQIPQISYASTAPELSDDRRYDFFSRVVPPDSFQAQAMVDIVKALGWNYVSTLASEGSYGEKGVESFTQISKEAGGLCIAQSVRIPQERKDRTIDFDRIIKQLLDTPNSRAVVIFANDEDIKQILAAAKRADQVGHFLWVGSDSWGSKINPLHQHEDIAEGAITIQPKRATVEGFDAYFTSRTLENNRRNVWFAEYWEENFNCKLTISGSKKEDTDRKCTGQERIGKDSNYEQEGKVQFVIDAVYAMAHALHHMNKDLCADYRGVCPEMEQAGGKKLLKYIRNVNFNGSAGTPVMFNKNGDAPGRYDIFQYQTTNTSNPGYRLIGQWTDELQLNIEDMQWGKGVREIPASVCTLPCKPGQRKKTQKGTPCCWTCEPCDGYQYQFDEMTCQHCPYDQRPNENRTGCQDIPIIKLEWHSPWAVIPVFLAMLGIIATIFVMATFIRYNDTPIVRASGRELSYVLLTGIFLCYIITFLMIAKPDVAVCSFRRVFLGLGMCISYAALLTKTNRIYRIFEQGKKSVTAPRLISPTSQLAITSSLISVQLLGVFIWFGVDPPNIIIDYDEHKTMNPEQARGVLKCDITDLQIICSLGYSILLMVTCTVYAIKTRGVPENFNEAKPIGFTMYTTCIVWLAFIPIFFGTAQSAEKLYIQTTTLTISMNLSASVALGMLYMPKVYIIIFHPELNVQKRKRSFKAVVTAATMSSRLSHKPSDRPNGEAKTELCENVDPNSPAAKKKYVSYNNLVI

Consider `Cc1cnc(-n2ncc3c(c2=O)CCC(c2cccc(OC4CC4)c2C)C3)nc1` (centres unmarked) [Example 93, 6-(3-cyclopropoxy-2-methylphenyl)-2-(5-methylpyrimidin-2-yl)-5,6,7,8-tetrahydrophthalazin-1(2H)-one], for which the IC50 (as a rule, the concentration at which inhibition is half-maximal) was under 500 nM.

Regarding `COc1cccc(C2CCc3c(cnn(-c4ncc(C)cn4)c3=O)C2)c1Cl` (centres unmarked) [Example 94, 6-(2-chloro-3-methoxyphenyl)-2-(5-methylpyrimidin-2-yl)-5,6,7,8-tetrahydrophthalazin-1(2H)-one], the IC50 is under 500 nM.

The compound `Cc1ccc(C2CCc3c(cnn(-c4ncccn4)c3=O)C2)c(Cl)c1` (centres unmarked) [Example 95, 6-(2-chloro-4-methylphenyl)-2-(pyrimidin-2-yl)-5,6,7,8-tetrahydrophthalazin-1(2H)-one] came in with an IC50 of under 500 nM.

In the case of `Cc1c(C2CCc3c(cnn(-c4ncccn4)c3=O)C2)cccc1N(C)C` (centres unmarked) [Example 96, 6-(3-(dimethylamino)-2-methylphenyl)-2-(pyrimidin-2-yl)-5,6,7,8-tetrahydrophthalazin-1(2H)-one], the IC50 is under 500 nM.

For `COc1cc(C2CCc3c(cnn(-c4ncccn4)c3=O)C2)c(C)cc1C` (centres unmarked) [Example 97, 6-(5-methoxy-2,4-dimethylphenyl)-2-(pyrimidin-2-yl)-5,6,7,8-tetrahydrophthalazin-1(2H)-one], the IC50 was under 500 nM.

Compound `Cc1cc(Cl)ccc1C1CCc2c(cnn(-c3ncccn3)c2=O)C1` (centres unmarked) [Example 98, 6-(4-chloro-2-methylphenyl)-2-(pyrimidin-2-yl)-5,6,7,8-tetrahydrophthalazin-1(2H)-one] displayed an IC50 of under 500 nM.

`CC(=O)c1ccc(C2CCc3c(cnn(-c4ncccn4)c3=O)C2)c(C)c1` (centres unmarked) [Example 99, 6-(4-acetyl-2-methylphenyl)-2-(pyrimidin-2-yl)-5,6,7,8-tetrahydrophthalazin-1(2H)-one] returned an IC50 of 1000 to 30000 nM.

In turn, `COCCCOc1cccc(C2CCc3c(cnn(-c4ncccn4)c3=O)C2)c1C` (centres unmarked) [Example 100, 6-(3-(3-methoxypropoxy)-2-methylphenyl)-2-(pyrimidin-2-yl)-5,6,7,8-tetrahydrophthalazin-1(2H)-one] displayed an IC50 of under 500 nM.

In the case of `CCOc1cccc(C2CCc3c(cnn(-c4ncccn4)c3=O)C2)c1C` (centres unmarked) [Example 101, 6-(3-ethoxy-2-methylphenyl)-2-(pyrimidin-2-yl)-5,6,7,8-tetrahydrophthalazin-1(2H)-one], the IC50 is under 500 nM.

Take `Cc1c(OCC2CC2)cccc1C1CCc2c(cnn(-c3ncccn3)c2=O)C1` (centres unmarked) [Example 102, 6-(3-(cyclopropylmethoxy)-2-methylphenyl)-2-(pyrimidin-2-yl)-5,6,7,8-tetrahydrophthalazin-1(2H)-one]: the IC50 was in the range of 500 to 1000 nM.

`Cc1c(OC(C)C)cccc1C1CCc2c(cnn(-c3ncccn3)c2=O)C1` (centres unmarked) [Example 103, 6-(3-isopropoxy-2-methylphenyl)-2-(pyrimidin-2-yl)-5,6,7,8-tetrahydrophthalazin-1(2H)-one]: the IC50 lay within 1000 to 30000 nM.

`Cc1c(OC2CC2)cccc1C1CCc2c(cnn(-c3ncccn3)c2=O)C1` (centres unmarked) [Example 104, 6-(3-cyclopropoxy-2-methylphenyl)-2-(pyrimidin-2-yl)-5,6,7,8-tetrahydrophthalazin-1(2H)-one] had an IC50 of under 500 nM.

The compound `COCCOc1cccc(C2CCc3c(cnn(-c4ncccn4)c3=O)C2)c1C` (centres unmarked) [Example 105, 6-(3-(2-methoxyethoxy)-2-methylphenyl)-2-(pyrimidin-2-yl)-5,6,7,8-tetrahydrophthalazin-1(2H)-one] gave a half-maximal inhibitory concentration (IC50) of 1000 to 30000 nM.

Regarding `Cc1c(OCc2ccccc2)cccc1C1CCc2c(cnn(-c3ncccn3)c2=O)C1` (centres unmarked) [Example 106, 6-(3-(benzyloxy)-2-methylphenyl)-2-(pyrimidin-2-yl)-5,6,7,8-tetrahydrophthalazin-1(2H)-one], the IC50 was 1000 to 30000 nM.

`COc1ccc(C)c(C2CCc3c(cnn(-c4ncc(C5CC5)cn4)c3=O)C2)c1` (centres unmarked) [Example 107, 2-(5-cyclopropylpyrimidin-2-yl)-6-(5-methoxy-2-methylphenyl)-5,6,7,8-tetrahydrophthalazin-1(2H)-one] gave an IC50 of 500 to 1000 nM.

For `Cc1ccc(C2CCc3c(cnn(-c4ccc(C5CC5)cn4)c3=O)C2)c(C)c1` (centres unmarked) [Example 108, 2-(5-cyclopropylpyridin-2-yl)-6-(2,4-dimethylphenyl)-5,6,7,8-tetrahydrophthalazin-1(2H)-one], the IC50 is under 500 nM.

Compound `Cc1ccc(C2CCc3c(cnn(-c4ncc(C5CC5)cn4)c3=O)C2)c(C)c1` (centres unmarked) [Example 109, 2-(5-cyclopropylpyrimidin-2-yl)-6-(2,4-dimethylphenyl)-5,6,7,8-tetrahydrophthalazin-1(2H)-one] had an IC50 of under 500 nM.

`COc1cccc(C2CCc3c(cnn(-c4ccc(C5CC5)cn4)c3=O)C2)c1C` (centres unmarked) [Example 110, 2-(5-cyclopropylpyridin-2-yl)-6-(3-methoxy-2-methylphenyl)-5,6,7,8-tetrahydrophthalazin-1(2H)-one] had an IC50 of under 500 nM.

`COc1cccc(C2CCc3c(cnn(-c4ncc(N5CCCC5)cn4)c3=O)C2)c1C` (centres unmarked) [Example 111, 6-(3-methoxy-2-methylphenyl)-2-(5-(pyrrolidin-1-yl)pyrimidin-2-yl)-5,6,7,8-tetrahydrophthalazin-1(2H)-one] returned a 50% inhibitory concentration (IC50) of 1000 to 30000 nM.

`COc1cccc(C2CCc3c(cnn(-c4ncc(N5CCOCC5)cn4)c3=O)C2)c1C` (centres unmarked) [Example 112, 6-(3-methoxy-2-methylphenyl)-2-(5-morpholinopyrimidin-2-yl)-5,6,7,8-tetrahydrophthalazin-1(2H)-one] returned an IC50 of under 500 nM.

The compound `COc1cccc(C2CCc3c(cnn(-c4ccc(N5CCOCC5)cn4)c3=O)C2)c1C` (centres unmarked) [Example 113, 6-(3-methoxy-2-methylphenyl)-2-(5-morpholinopyridin-2-yl)-5,6,7,8-tetrahydrophthalazin-1(2H)-one] returned an IC50 of under 500 nM.

Compound `Cc1ccc(C2CCc3c(cnn(-c4ccc(N5CCOCC5)cn4)c3=O)C2)c(C)c1` (centres unmarked) [Example 114, 6-(2,4-dimethylphenyl)-2-(5-morpholinopyridin-2-yl)-5,6,7,8-tetrahydrophthalazin-1(2H)-one] showed an IC50 of under 500 nM.

`Cc1ccc(C2CCc3c(cnn(-c4ncc(N5CCOCC5)cn4)c3=O)C2)c(C)c1` (centres unmarked) [Example 115, 6-(2,4-dimethylphenyl)-2-(5-morpholinopyrimidin-2-yl)-5,6,7,8-tetrahydrophthalazin-1(2H)-one] yielded an IC50 of under 500 nM.

On to `Cc1ccc(C2CCc3c(cnn(-c4ncc(N5CCC5)cn4)c3=O)C2)c(C)c1` (centres unmarked) [Example 116, 2-(5-(azetidin-1-yl)pyrimidin-2-yl)-6-(2,4-dimethylphenyl)-5,6,7,8-tetrahydrophthalazin-1(2H)-one], for which the IC50 is under 500 nM.

Compound `CC(=O)Nc1cnc(-n2ncc3c(c2=O)CCC(c2ccc(C)cc2C)C3)nc1` (centres unmarked) [Example 117, N-(2-(6-(2,4-dimethylphenyl)-1-oxo-5,6,7,8-tetrahydrophthalazin-2(1H)-yl)pyrimidin-5-yl)acetamide] displayed an IC50 of under 500 nM.

`COCCOc1cnc(-n2ncc3c(c2=O)CCC(c2cccc(OC)c2C)C3)nc1` (centres unmarked) [Example 118, 6-(3-methoxy-2-methylphenyl)-2-(5-(2-methoxyethoxy)pyrimidin-2-yl)-5,6,7,8-tetrahydrophthalazin-1(2H)-one] had an IC50 of under 500 nM.
